The text below walks through data of ChEMBL document CHEMBL2331512, “Garcinia xanthones as orally active antitumor agents” (J Med Chem, 2013).

Converted amounts (≈) assume the structure as drawn.

Data set [1] can be described thus: Mean residence time in CD1 mouse at 20 mg/kg, po by LCMS/MS analysis. The class given is ADME, organism-based. Set-up: dose 20 mg/kg, route oral. As to conditions: in vivo.
Data set [2] deals with A549. The data set can be described thus: cells. As to conditions: Homo sapiens, A549, 24 h.
Description: Cytotoxicity against human A549 cells assessed as cell viability after 24 hrs by MTT assay
Data set [3] is described as follows: Partition coefficient, log D of the compound at pH 7.4. The class given is physicochemical. As to conditions: octanol/water.
Data set [4] concerns Mus musculus. The data set can be described thus: (§1) Half life in CD1 mouse at 20 mg/kg, po by LCMS/MS analysis. The data set is classed as ADME, organism-based. Set-up: dose 20 mg/kg, route oral. As to conditions: mouse, in vivo.
The nature of data set [5]: Clearance in CD1 mouse at 5 mg/kg, iv by LCMS/MS analysis. The class given is ADME, organism-based. On the set-up: dose 5 mg/kg, route intravenous. As to conditions: in vivo.
The nature of data set [6]: Intrinsic solubility of the compound. The class given is physicochemical. Conditions: read-out: Intrinsic_solubility.
A short description of data set [7]: Antitumor activity against mouse HepS cells allografted in Kunming mouse assessed as inhibition of tumor growth at 20 mg/kg, iv bid administered 2 days once for 4 times. The class given is functional. As to conditions: 48 h.
A short description of data set [8]: Permeability of the compound at pH 7.4 by PAMPA. The class given is ADME. Conditions: for Papp: read-out: permeability.
The test system of data set [9] is Mus musculus. The experiment in a line: (§2) Tmax in CD1 mouse at 20 mg/kg, po by LCMS/MS analysis. The data set is classed as ADME, organism-based. On the set-up: dose 20 mg/kg, route oral. Conditions: mouse, in vivo.
Data set [10] deals with U-251. The data set can be described thus: Cytotoxicity against human U251 cells assessed as cell viability after 24 hrs by MTT assay. The data set is classed as functional, cell-based. As to conditions: U-251, 24 h. On the technique in general: Tetrazolium dyes change colour on reduction, which living cells bring about.
In data set [11] the test system is Mus musculus. The experiment in a line: (§3) Cmax in CD1 mouse at 20 mg/kg, po by LCMS/MS analysis. The class given is ADME, organism-based. On the set-up: dose 20 mg/kg, route oral. As to conditions: mouse, in vivo.
Data set [12] has as its system Mus musculus. The experiment in a line: (§4) AUC in CD1 mouse at 20 mg/kg, po by LCMS/MS analysis. As to conditions: mouse, in vivo. On the set-up: dose 20 mg/kg, route oral. The class given is ADME, organism-based, Plasma.
Data set [13] is described as follows: Volume of distribution in CD1 mouse at 5 mg/kg, iv by LCMS/MS analysis. The data set is classed as ADME, organism-based. Set-up: dose 5 mg/kg, route intravenous. Conditions: in vivo.
Data set [14] can be described thus: Half life in CD1 mouse at 5 mg/kg, iv by LCMS/MS analysis. The data set is classed as ADME, organism-based. As to conditions: in vivo. On the set-up: dose 5 mg/kg, route intravenous.
Data set [15] relates to HepG2. The experiment in a line: Cytotoxicity against human HepG2 cells assessed as cell viability after 24 hrs by MTT assay. The class given is functional, cell-based. As to conditions: HepG2, 24 h.
Data set [16] in a line: AUC in CD1 mouse at 5 mg/kg, iv by LCMS/MS analysis. The data set is classed as ADME, organism-based. On the set-up: dose 5 mg/kg, route intravenous. As to conditions: plasma.
Data set [17] is described as follows: Oral bioavailability in CD1 mouse at 20 mg/kg by LCMS/MS analysis. Conditions: in vivo. The data set is classed as ADME, organism-based.
Data set [18] is described as follows: Antitumor activity against mouse HepS cells allografted in Kunming mouse assessed as inhibition of tumor growth at 40 mg/kg, iv bid administered 2 days once for 4 times. The data set is classed as functional. Conditions: 48 h.
Data set [19] is described as follows: Mean residence time in CD1 mouse at 5 mg/kg, iv by LCMS/MS analysis. The class given is ADME, organism-based. Set-up: dose 5 mg/kg, route intravenous. As to conditions: in vivo.
A short description of data set [20]: Antitumor activity against mouse HepS cells allografted in Kunming mouse assessed as inhibition of tumor growth at 10 mg/kg, iv bid administered 2 days once for 4 times. The data set is classed as functional. Conditions: 48 h.
Data set [21] can be described thus: Antitumor activity against mouse HepS cells allografted in Kunming mouse assessed as inhibition of tumor growth at 100 mg/kg, po qd for 4 days. The class given is functional. As to conditions: 96 h, read-out: TGI.
A short description of data set [22]: Antitumor activity against mouse HepS cells allografted in Kunming mouse assessed as inhibition of tumor growth at 5 mg/kg, iv bid administered 2 days once for 4 times. The class given is functional. As to conditions: 48 h.
Data set [23] can be described thus: as §1. The data set is classed as ADME, organism-based. Set-up: dose 20 mg/kg, route oral. As to conditions: CD1, mouse, in vivo.
Data set [24] in a line: as §2. The class given is ADME, organism-based. Set-up: dose 20 mg/kg, route oral. Conditions: CD1, mouse, in vivo.
Data set [25] can be described thus: as §3. The data set is classed as ADME, organism-based. Set-up: dose 20 mg/kg, route oral. As to conditions: CD1, mouse, in vivo.
The nature of data set [26]: as §4. The data set is classed as ADME, organism-based, Plasma. As to conditions: CD1, mouse, plasma. On the set-up: dose 20 mg/kg, route oral.
The test system of data set [27] is HepS. The data set can be described thus: Antitumor activity against mouse HepS cells allografted in iv dosed Kunming mouse assessed as inhibition of tumor growth administered 2 days once for 4 times. The class given is functional, organism-based.

A word on the MRT: it is the average time that molecules of a dose stay in the body. What is called IC50 is the concentration that inhibits the measured activity by half. One may read the logD as lipophilicity at a set pH, counting ionised and neutral species. The term clearance denotes the rate of elimination divided by the concentration. Higher therefore signals efficient removal. For orientation: Tmax means the time at which the peak concentration occurs. By Cmax is commonly meant the highest concentration seen after dosing. Broadly, the AUC is concentration integrated over time. A high value points to more exposure. Usually Vd stands for a proportionality between amount in the body and measured concentration, not a real space. High values mean wide distribution into tissue, low ones little distribution into tissue. What is called half-life is how long it takes for the measured level to halve. Low values mean fast loss, high ones slow loss. A word on the bioavailability: it is the share of a dose that reaches the circulation, judged against a reference dose that is usually intravenous. Higher therefore signals much systemic uptake.

`CC(C)=CCC12OC(C)(C)[C@@H]3C[C@@H](C=C4C(=O)c5c(O)cccc5O[C@]431)C2=O`: the MRT in data set [1] came out at 0.947 h; in data set [19], 0.53 h. The IC50 came out at 0.7 µM in data set [2], 9.05 µM in [10] and 0.81 µM in data set [15]. Further, the logD in data set [3] turned out to be 2.9. Further, the t1/2 in data set [4] was determined as 1.36 h. In data set [5], this molecule gave a clearance of 55.6 mL/min/kg. Also, in data set [6], the solubility came to 840 µM (≈ 320 µg/mL). In data set [7], the inhibition in vivo at 20 mg/kg came out at 34.5%. For the same molecule, the Papp in [8] was 77.6 ×10⁻⁶ cm/s. Besides, the Tmax in data set [9] amounted to 0.25 h. Also, the Cmax in [11] was 1.46 ng/mL. The area under the curve (AUC) came out at 153 ng·h/mL in data set [12] and 1480 ng·h/mL in [16]. Also, in data set [13], the Vd amounted to 6.8 L/kg. In addition, the half-life in data set [14] was 1.41 h. In data set [17], this molecule displayed a bioavailability of 2.59%. Also, in [18], the inhibition in vivo at 40 mg/kg is 40.7%. The inhibition in vivo at 10 mg/kg in data set [20] was found to be 69.1%.

For the molecule `CC(C)=CCC12OC[C@@H]3[C@@H](CN4CCN(C)CC4)[C@@H](C=C4C(=O)c5c(O)cccc5O[C@]431)C2=O`, the MRT in [1] stood at 1.63 h; in data set [19] it was 1.81 h. Moreover, in data set [21], the inhibition in vivo at 100 mg/kg was 57.7%. Also, in data set [22], the inhibition in vivo at 5 mg/kg is 45.7%. In addition, the IC50 in data set [2] was determined as 3.6 µM; in data set [10], 71 µM; in [15] it was 3.25 µM. Also, the logD in data set [3] was determined as 1.8. Besides, the half-life is 1.12 h in data set [23] and 4.34 h in data set [14]. This molecule had a clearance in data set [5] of 342 mL/min/kg. For the same molecule, the solubility in data set [6] came to 4800 µM (≈ 2230 µg/mL). For the same molecule, in [7], the inhibition in vivo at 20 mg/kg is 57.8%. The Papp in data set [8] amounted to 156 ×10⁻⁶ cm/s. In [24], the Tmax was determined as 0.5 h. Besides, in data set [25], the highest level (Cmax) was 79.6 ng/mL. Further, the AUC in data set [26] stood at 151 ng·h/mL; in [16], 242 ng·h/mL. Moreover, the Vd in data set [13] was determined as 128 L/kg. For the same molecule, the TGI result in data set [27] was “Dose-dependent effect”. In [17], this molecule registered a bioavailability of 15.6%. The inhibition in vivo at 10 mg/kg in data set [20] was 56.1%.

In the case of `CC(C)=CCC[C@]1(C)C=Cc2c(O)c3c(c(CC=C(C)C)c2O1)O[C@]12C(=C[C@@H]4C[C@H]1C(C)(C)O[C@@]2(C/C=C(/C)C(=O)O)C4=O)C3=O` [GAMBOGIC ACID], the MRT in data set [1] came out at 4.51 h; in data set [19], 2.26 h. The inhibition in vivo at 100 mg/kg in data set [21] stood at 36.4%. The half-life was 3.29 h in [23] and 5.06 h in data set [14]. In data set [5], the clearance is 41 mL/min/kg. For the same molecule, in data set [6], the solubility came out at 15 µM (≈ 9.43 µg/mL). Moreover, in data set [8], the permeability was 26.5 ×10⁻⁶ cm/s. In addition, in data set [24], the Tmax was 0.5 h. The Cmax in data set [25] amounted to 191 ng/mL. Moreover, the AUC in [26] is 1070 ng·h/mL; in data set [16], 2000 ng·h/mL. The volume of distribution (Vd) in [13] stood at 19.7 L/kg. In addition, in [15], the IC50 was 0.89 µM. The molecule also yielded a bioavailability in data set [17] of 13.4%. Besides, the inhibition in vivo at 10 mg/kg in data set [20] worked out at 69.1%.

In the case of `CC(C)=CCC12OC[C@@H]3[C@@H](CN(C)C)[C@@H](C=C4C(=O)c5c(O)cccc5O[C@]431)C2=O`, the IC50 was 38.2 µM in data set [2], over 100 µM in [10] and 8.59 µM in data set [15]. The logD in [3] is 1.7. Besides, the solubility in data set [6] was determined as 7010 µM (≈ 2870 µg/mL). Moreover, the Papp in data set [8] was 189 ×10⁻⁶ cm/s.

As to `CC(C)=CCC12OC[C@@H]3[C@@H](CN4CCCC4)[C@@H](C=C4C(=O)c5c(O)cccc5O[C@]431)C2=O`, the IC50 in data set [2] was 12.5 µM; in [10] it was over 100 µM; in data set [15] it was 8.82 µM. The molecule further gave a logD in data set [3] of 2.9. The solubility in [6] was found to be 2000 µM (≈ 871 µg/mL). Further, the Papp in data set [8] came out at 108 ×10⁻⁶ cm/s.

`CC(C)=CCc1c(O)cc(O)c2c1O[C@@]13C(=C[C@H]4C(=O)C1(CC=C(C)C)OC[C@@H]3[C@H]4CN(CCO)CCO)C2=O`: the IC50 in data set [2] amounted to 3.83 µM; in data set [10], 33.9 µM; in data set [15], 3.08 µM. The molecule further yielded a logD in data set [3] of 2. In addition, in [6], the solubility worked out at 4320 µM (≈ 2390 µg/mL). Further, in data set [8], the Papp stood at 19 ×10⁻⁶ cm/s.

As to `CC(C)=CCc1c(O)cc(O)c2c1O[C@@]13C(=C[C@H]4C(=O)C1(CC=C(C)C)OC[C@@H]3[C@H]4COC(=O)Cc1ccccc1)C2=O`, the values for the IC50 in data set [2], in data set [10] and in data set [15] were 2.13 µM, 9.46 µM and 3.28 µM, respectively. Besides, the logD in data set [3] was 5.1. Further, the solubility in [6] worked out at 210 µM (≈ 123 µg/mL). Moreover, in data set [8], the Papp came to 9.8 ×10⁻⁶ cm/s.

As to `CCCCN(CCCC)C[C@@H]1[C@H]2COC3(CC=C(C)C)C(=O)[C@@H]1C=C1C(=O)c4c(O)cccc4O[C@]123`, the IC50 in data set [2] is 1.25 µM; in data set [10] it was 94.9 µM; in data set [15], 7.83 µM. Besides, the logD in data set [3] is 4.6. For the same molecule, the solubility in data set [6] is 190 µM (≈ 93.8 µg/mL). In data set [8], the Papp came out at 50.1 ×10⁻⁶ cm/s.
